Source: the NIST ThermoML archive (doi:10.1021/je800375t)

Details: Liquid

COC [dimethyl ether]
Details	vapor or sublimation pressure [kPa]
213.08 K	16.46
218.11 K	22.24
223.15 K	29.61
228.06 K	38.64
233.09 K	49.96
238.11 K	63.84
243.07 K	80.36
248.12 K	100.43
253.12 K	124.09
258.13 K	152.4
263.13 K	184.96
268.13 K	222.7
273.17 K	266.5
278.17 K	316.12
283.16 K	372.9
288.13 K	436.69
293.17 K	509.01
298.08 K	588.17
298.78 K	600.51
303.15 K	679.68
303.78 K	691.56
308.13 K	778.92
313.17 K	889.98
318.16 K	1011.5
323.17 K	1144.7
328.16 K	1290.2
333.17 K	1449.2
338.17 K	1621.5
343.16 K	1809.1
348.16 K	2012.4
353.16 K	2232.3
358.16 K	2468.9
363.16 K	2723.3
368.14 K	2996.4
373.14 K	3291.2
378.15 K	3608.6
383.15 K	3948.6
388.16 K	4313.9
393.16 K	4706.2
